Data as given in the supplement of paper PMC11061612.

Assays:
Assay in all cases: Bliss excess, mean over the matrix (fraction); higher = more synergy
[1] = system: COLO-680N (Esophageal Squamous Cell Carcinoma)
How it was run: (§1)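 Bliss excess equals the observed combination effect minus the expected value EA + EB − EA·EB, where EA and EB are the effects of each agent alone. Combination Emax is the second-highest inhibition within the matrix. Inhibition was scaled from CellTiter-Glo 2.0 luminescence, with 0 set by vehicle wells and 1 by blank wells, after 72 hours of two-drug dosing of cells plated in 1536-well plates.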

[2] = system: PSN1 (Pancreatic Carcinoma)
How it was run: as §1

[3] = system: KE-37 (T-Lymphoblastic Leukemia)
How it was run: as §1

[4] = system: FADU (Head and Neck Carcinoma)
How it was run: as §1

[5] = system: GP5d (Colorectal Carcinoma)
How it was run: as §1

[6] = system: TE-8 (Esophageal Squamous Cell Carcinoma)
How it was run: as §1

[7] = system: RERF-LC-Sq1 (Squamous Cell Lung Carcinoma)
How it was run: as §1

[8] = system: LB996-RCC (Kidney Carcinoma)
How it was run: as §1

[9] = system: OAW-42 (Ovarian Carcinoma)
How it was run: as §1

[10] = system: RKN (Other Solid Carcinomas)
How it was run: as §1

[11] = system: LK-2 (Squamous Cell Lung Carcinoma)
How it was run: as §1

[12] = system: REH (B-Lymphoblastic Leukemia)
How it was run: as §1

[13] = system: HEC-1 (Endometrial Carcinoma)
How it was run: as §1

LN-229 (Glioblastoma) = system: LN-229 (Glioblastoma)
How it was run: as §1

[14] = system: MFE-280 (Endometrial Carcinoma)
How it was run: as §1

[15] = system: PANC-03-27 (Pancreatic Carcinoma)
How it was run: as §1

[16] = system: CAL-62 (Thyroid Gland Carcinoma)
How it was run: as §1

[17] = system: MKN45 (Gastric Carcinoma)
How it was run: as §1

[18] = system: NCI-H446 (Small Cell Lung Carcinoma)
How it was run: as §1

[19] = system: SHP-77 (Small Cell Lung Carcinoma)
How it was run: as §1

| SMILES | Bliss excess [1] | Bliss excess [2] | Bliss excess [3] | Bliss excess [4] | Bliss excess [5] | Bliss excess [6] | Bliss excess [7] | Bliss excess [8] | Bliss excess [9] | Bliss excess [10] | Bliss excess [11] | Bliss excess [12] | Bliss excess [13] | Bliss excess (LN-229 (Glioblastoma)) | Bliss excess [14] | Bliss excess [15] | Bliss excess [16] | Bliss excess [17] | Bliss excess [18] | Bliss excess [19] |
| --- | --- | --- | --- | --- | --- | --- | --- | --- | --- | --- | --- | --- | --- | --- | --- | --- | --- | --- | --- | --- |
| COc1cc2ncnc(Nc3ccc(F)c(Cl)c3)c2cc1OCCCN1CCOCC1 [Gefitinib] + CC(C)n1c(=O)n(C)c2cnc3cc(F)c(-c4ccc(OCCCN5CCCCC5)nc4)cc3c21 [AZD1390] (first compound max 10 µM, 7x7, partner max 0.3 µM) | -0.0252 | -0.0338 | -0.0791 | -0.0619 | -0.0359 | -0.075 | -0.0938 | -0.0069 | -0.0384 | -0.0646 | 0.0037 | -0.0498 | -0.0442 | -0.077 | -0.0676 | -0.0223 | -0.0451 | -0.046 | -0.0082 | -0.0471 |
| CN(CCO)CC[C@H](CSc1ccccc1)Nc1ccc(S(=O)(=O)NC(=O)c2ccc(N3CCC([C@@H](O)c4ccccc4-c4ccc(Cl)cc4)CC3)cc2)cc1S(=O)(=O)C(F)(F)F [AZD4320] + CCN(CCO)CCCOc1ccc2c(Nc3cc(CC(=O)Nc4cccc(F)c4)[nH]n3)ncnc2c1 [AZD2811] (first compound max 1 µM, 7x7, partner max 1 µM) | -0.0373 | -0.0029 | -0.0049 | 0.0014 | 0.0026 | 0.0845 | 0.0012 | 0.0389 | -0.0359 | -0.0481 | 0.0358 | 0.175 | -0.0049 | -0.0074 | 0.0821 | 0.0197 | 0.0354 | -0.0438 | -0.0505 | -0.0019 |
| NC1(C(=O)N[C@@H](CCO)c2ccc(Cl)cc2)CCN(c2ncnc3[nH]ccc23)CC1 [Capivasertib] + COc1nnc2ccc(N3CCC(c4ccc(OCCN5CCN(C)C(=O)[C@H]5C)cc4)CC3)nn12 [AZD5153] (first compound max 10 µM, 7x7, partner max 1 µM) | 0.0355 | -0.0448 | -0.045 | 0.032 | 0.0292 | -0.0718 | 0.0617 | 0.0131 | 0.0972 | -0.0451 | 0.0566 | 0.0272 | 0.0143 | -0.0313 | -0.0126 | -0.007 | -0.0078 | -0.0587 | 0.0021 | -0.0995 |
| Cn1cnc2c(F)c(Nc3ccc(Br)cc3Cl)c(C(=O)NOCCO)cc21 [Selumetinib] + C=CCn1c(=O)c2cnc(Nc3ccc(N4CCN(C)CC4)cc3)nc2n1-c1cccc(C(C)(C)O)n1 [AZD1775] (first compound max 10 µM, partner max 1 µM) | 0.0147 | -0.0321 | 0.0083 | -0.0284 | -0.0796 | 0.0076 | -0.0617 | -0.0886 | -0.0694 | -0.0397 | -0.0356 | -0.0424 | -0.0448 | -0.0115 | -0.0485 | -0.0164 | 0.0273 | -0.0765 | -0.0441 | 0.0141 |
| COc1nnc2ccc(N3CCC(c4ccc(OCCN5CCN(C)C(=O)[C@H]5C)cc4)CC3)nn12 [AZD5153] + C[C@@H]1COCCN1C2=NC(=NC(=C2)C3(CC3)[S@](=N)(=O)C)C4=C5C=CNC5=NC=C4 [AZD6738] (first compound max 1 µM, 7x7, partner max 10 µM) | 0.0046 | 0.0171 | 0.0286 | 0.0155 | -0.0421 | 0.0176 | 0.0033 | -0.0142 | 0.0752 | -0.0757 | 0.0491 | -0.0059 | 0.0625 | 0.0224 | -0.0103 | -0.091 | -0.0082 | -0.0649 | 0.0153 | 0.0591 |
| NC1(C(=O)N[C@@H](CCO)c2ccc(Cl)cc2)CCN(c2ncnc3[nH]ccc23)CC1 [Capivasertib] + CC(=O)c1c(C)c2cnc(Nc3ccc(N4CCNCC4)cn3)nc2n(C2CCCC2)c1=O [Palbociclib] (first compound max 10 µM, 7x7, partner max 10 µM) | -0.0467 | 0.0408 | 0.0024 | -0.0259 | -0.018 | -0.0254 | 0.0352 | 0.0312 | -0.0305 | -0.0803 | 0.0401 | 0.0022 | -0.0115 | -0.0387 | -0.0624 | -0.0187 | 0.0169 | 0.0256 | -0.03 | -0.142 |
| CC1(C)CCC(CN2CCN(c3ccc(C(=O)NS(=O)(=O)c4ccc(NCC5CCOCC5)c([N+](=O)[O-])c4)c(Oc4cnc5[nH]ccc5c4)c3)CC2)=C(c2ccc(Cl)cc2)C1 [Venetoclax] + C[C@@H](Nc1cc(F)cc(F)c1)c1cc(C(=O)N(C)C)cc2c(=O)cc(N3CCOCC3)oc12 [AZD8186] (first compound max 1 µM, 7x7, partner max 3 µM) | -0.0276 | -0.0683 | 0.0385 | -0.0291 | -0.0188 | -0.0522 | -0.0242 | 0.0035 | -0.047 | -0.0289 | -0.0234 | 0.01 | -0.0336 | -0.0267 | -0.0525 | -0.0415 | -0.0173 | -0.057 | 0.135 | 0.0205 |
| NC1(C(=O)N[C@@H](CCO)c2ccc(Cl)cc2)CCN(c2ncnc3[nH]ccc23)CC1 [Capivasertib] + C[C@@H]1COCCN1C2=NC(=NC(=C2)C3(CC3)[S@](=N)(=O)C)C4=C5C=CNC5=NC=C4 [AZD6738] (first compound max 10 µM, 7x7, partner max 10 µM) | -0.0158 | -0.0084 | -0.0061 | 0.0096 | -0.103 | -0.0784 | -0.0719 | -0.0418 | 0.0034 | -0.124 | -0.0189 | -0.0859 | -0.0205 | -0.0405 | -0.0742 | -0.0537 | -0.0306 | -0.0553 | -0.0166 | -0.0078 |
| COc1nnc2ccc(N3CCC(c4ccc(OCCN5CCN(C)C(=O)[C@H]5C)cc4)CC3)nn12 [AZD5153] + Cn1cnc2c(F)c(Nc3ccc(Br)cc3Cl)c(C(=O)NOCCO)cc21 [Selumetinib] (first compound max 1 µM, 7x7, partner max 10 µM) | 0.0131 | 0.0717 | -0.0459 | -0.015 | -0.0805 | 0.032 | 0.102 | -0.0728 | 0.02 | -0.0073 | 0.0918 | -0.0495 | -0.0115 | -0.0426 | 0.0114 | 0.0131 | 0.0286 | -0.0237 | 0.033 | -0.134 |
| Cc1c2c(nn1C)CSCc1cc(n(C)n1)CSc1cc(c3ccccc3c1)OCCCc1c(C(=O)O)n(C)c3c-2c(Cl)ccc13 [AZD5991] + C=CCn1c(=O)c2cnc(Nc3ccc(N4CCN(C)CC4)cc3)nc2n1-c1cccc(C(C)(C)O)n1 [AZD1775] (first compound max 1 µM, partner max 1 µM) | 0.0254 | -0.0694 | 0.0334 | -0.0016 | -0.0133 | -0.058 | 0.0112 | -0.008 | 0.0001 | -0.0446 | -0.0217 | -0.112 | 0.0192 | 0.0754 | 0.0045 | 0.0186 | -0.0385 | -0.0456 | -0.0162 | -0.0378 |
| CC1(C)CCC(CN2CCN(c3ccc(C(=O)NS(=O)(=O)c4ccc(NCC5CCOCC5)c([N+](=O)[O-])c4)c(Oc4cnc5[nH]ccc5c4)c3)CC2)=C(c2ccc(Cl)cc2)C1 [Venetoclax] + Cc1cc2ncnn2cc1Nc1ncc2c(n1)n(C1CCOCC1)c(=O)n2C [AZD7648] (first compound max 1 µM, 7x7, partner max 10 µM) | -0.0293 | -0.0534 | 0.0325 | -0.0241 | -0.0119 | -0.0121 | -0.0268 | -0.0258 | -0.0381 | -0.062 | 0.0102 | 0.0108 | -0.0286 | -0.0174 | -0.0773 | -0.043 | -0.025 | -0.0576 | -0.0181 | -0.0088 |
| CC(=O)c1c(C)c2cnc(Nc3ccc(N4CCNCC4)cn3)nc2n(C2CCCC2)c1=O [Palbociclib] + Cc1c2c(nn1C)CSCc1cc(n(C)n1)CSc1cc(c3ccccc3c1)OCCCc1c(C(=O)O)n(C)c3c-2c(Cl)ccc13 [AZD5991] (first compound max 10 µM, 7x7, partner max 1 µM) | -0.0341 | -0.0111 | 0.0783 | -0.126 | -0.069 | -0.108 | -0.0228 | -0.0238 | 0.0143 | -0.0557 | 0.0076 | -0.0213 | -0.0336 | -0.057 | -0.0333 | -0.0242 | -0.0047 | -0.0556 | 0.0062 | -0.0247 |
| C[C@@H](c1ccc2nccn2c1)n1nnc2ncc(-c3cnn(C)c3)nc21 [Savolitinib] + CC1(C)CCC(CN2CCN(c3ccc(C(=O)NS(=O)(=O)c4ccc(NCC5CCOCC5)c([N+](=O)[O-])c4)c(Oc4cnc5[nH]ccc5c4)c3)CC2)=C(c2ccc(Cl)cc2)C1 [Venetoclax] (first compound max 1 µM, 7x7, partner max 1 µM) | -0.0115 | -0.0411 | -0.0357 | -0.107 | -0.0572 | -0.105 | -0.0562 | -0.0725 | -0.024 | -0.0529 | -0.0137 | -0.0192 | -0.0423 | -0.0679 | -0.044 | -0.0176 | -0.0246 | -0.0664 | 0.0246 | -0.0623 |
| CC(=O)c1c(C)c2cnc(Nc3ccc(N4CCNCC4)cn3)nc2n(C2CCCC2)c1=O [Palbociclib] + CC1(C)CCC(CN2CCN(c3ccc(C(=O)NS(=O)(=O)c4ccc(NCC5CCOCC5)c([N+](=O)[O-])c4)c(Oc4cnc5[nH]ccc5c4)c3)CC2)=C(c2ccc(Cl)cc2)C1 [Venetoclax] (first compound max 10 µM, 7x7, partner max 1 µM) | -0.0445 | -0.0149 | 0.0258 | -0.0596 | -0.011 | -0.0784 | 0.0475 | 0.0044 | -0.0365 | -0.0841 | -0.0179 | -0.0446 | -0.0489 | -0.0652 | -0.068 | -0.0545 | -0.029 | -0.0481 | 0.0219 | 0.0543 |
